Measured values reported in patent publication US20230181569A1, “COMPOSITIONS AND METHODS TO TREAT POLYCYSTIC KIDNEY DISEASE” (Board of Supervisors of Louisiana State University and …, priority 2020, published 2023).
Read-outs that look alike come from different tables or passages of the source.

Key:
Sprague-Dawley rats = settings: cited from earlier work; for urine output: Sprague-Dawley rats; for sedation and hyperphagia: rat, in vivo
Pkd1 RC/RC mice = experiment: Chronic daily oral gavage of KOA in Pkd1 RC/RC mice (Example 1, Studies 1 and 2); format: in vivo; settings: daily oral gavage 4 or 8 weeks; for fibrosis area in the kidney / serum creatinine and blood urea levels / cyst size and numbers: Pkd1 RC/RC mice; for cyst size and numbers: 5 mg/kg JT-09 or 100 µg/kg nalfurafine; for GFR: mice with PKD
Experimental: Pkd1 RC/RC mice were used as the polycystic kidney disease model. 12 weeks old mice were given a KOA treatment (JT-09 or nalfurafine) or a vehicle at a dose of 5 mg/kg for JT-09 or 100 µg/kg for nalfurafine daily for 4 or 8 weeks.
Group 1: Pkd1 RC/RC mice + treatment (JT09 or nalfurafine) oral gavage (5 mg/kg for JT-09 or 100 µg/kg for nalfurafine) daily. n=24
Group 2: Pkd1 RC/RC mice + vehicle oral gavage daily. n=24
At 16 weeks old, 12 mice from both groups 1 and 2 were selected. These mice were each placed in a metabolic cage to collect urine for three 24-hour periods (a total of 72 hours). Each mouse was placed in a separate metabolic cage, as opposed to all mice in a single metabolic cage. Daily water intake for each mouse is also recorded. Mice were then deep anesthetized, and blood was be taken from their artery. Mice were then sacrificed. Both kidneys were perfused with PBS and fixed in neutral buffered formalin. Kidneys were processed for paraffin embedding and sectioning. H&E and picrosirus stain were performed on each section. Cystic index including cysts size and number were evaluated by a pathologist. Fibrosis was evaluated by the pathologist as well; in addition, a fibrotic score was given. The serum creatinine and blood urea level in the blood was then measured.
At 20 weeks old, the other set of 12 mice in both groups was then sacrificed and the same experiment was be performed as described herein.
At 16 weeks old, 12 mice from each group were anesthetized. The right jugular vein was catheterized for inulin infusion, and the bladder was catheterized for urine collection. GFR was evaluated based on the excretion rate of FITC-sinistrin.
At 20 weeks old, the same GFR measure was be repeated on the other 12 mice from each group.

[1] = in vivo; cited from earlier work
Pkd1^RC/RC mice = experiment: Acute oral gavage of nalfurafine, urine output in PKD mice; format: in vivo
Experimental: Volume expansion, give mice saline at the dose of 20 ml/kg. (b) dose responsive curve of nalfurafine in Pkd1^RC/RC mice. Y axis, accumulative urine output of 5 hours after dosing. n=7-10 in each group.
ADPKD patients have an elevated level of vasopressin. Based on this observation, tolvaptan was discovered and later approved by its mechanism of action of blocking V2 receptors on the distal tubules. However, this also leads to the side effect of polyuria and severe thirst. […] Therefore, the long-term effects by nalfurafine on urine output can be limited unlike tolvaptan.
Therefore, we will give PKD mice nalfurafine daily at the maximum responsive dose 240 ug/kg/day for chronic studies in both Aim 1 and Aim 2 to obtain the greatest benefits.

WT mice = experiment: Oral gavage of nalfurafine, urine output in wild type mice; format: in vivo
Experimental: The dose volume is 20 ml/kg.
Polycystic kidney disease (PKD) affects one person in every 400 to 1000 people in the U.S., which is associated with substantial mortality. […] There is no cure for PKD, and currently only one treatment is available to delay progression: tolvaptan, a vasopressin V2 receptor antagonist. This drug is expensive and indicated only in some patients who are at high risk for progression. The efficacy of tolvaptan proves that an active vasopressin pathway plays a critical role in this disease progression. However, the drug carries risk of severe hepatic toxicity, and patients treated with tolvaptan are suffering serious side effects, such as severe thirst and polyuria due to inhibition of V2 receptor in the distal nephrons. […] In addition to their inhibitory effect on vasopressin secretion and subsequent diuretic effect, KOAs can produce an anti-inflammatory micro-environment at the cellular level, which protects cardiac tissue from fibrosis.

Sprague Dawley rats = experiment: Stability of drug dissolved in drinking water, read out as urine output in rats; format: in vivo
Experimental: Day 1, the fresh made drug was given to rats. Day 4, the drug made on day 1 was given to the same rats. Veh, vehicle; Nal, nalfurafine. n=3 for each group.
Route of administration: Drug will be given orally in drinking water. We have performed a study to test the stability of the drug. […] We then left this water bottle at room temperature for three days, and we then gave this water to the same rats again. […] Therefore, the drug is stable for 3 days when it is dissolved in water at room temperature. We will make fresh nalfurafine in drinking water every 3 days in the chronic studies in both Aim 1 and Aim 2. We will give another group of mice the standard care of tolvaptan to serve as comparison of the treatment.

affected skin = settings: atopic dermatitis and pruritus; cited from earlier work
kappa receptors = kappa receptors (Homo sapiens, UniProt P41145); settings: cited from earlier work
Chain of kappa receptors (P41145 whole entry): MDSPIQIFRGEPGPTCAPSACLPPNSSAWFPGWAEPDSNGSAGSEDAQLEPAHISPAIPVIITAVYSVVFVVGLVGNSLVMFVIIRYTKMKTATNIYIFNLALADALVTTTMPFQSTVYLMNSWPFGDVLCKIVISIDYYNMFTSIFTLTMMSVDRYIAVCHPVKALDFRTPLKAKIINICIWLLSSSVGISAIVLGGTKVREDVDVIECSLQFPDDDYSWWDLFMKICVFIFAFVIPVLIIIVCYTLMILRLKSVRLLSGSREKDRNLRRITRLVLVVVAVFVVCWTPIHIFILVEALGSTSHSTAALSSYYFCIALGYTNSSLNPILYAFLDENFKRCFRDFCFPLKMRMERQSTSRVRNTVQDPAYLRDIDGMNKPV

[2] = cited from earlier work
patients [3] = settings: cited from earlier work
[4] = cited from earlier work; remark: listed apart in the source
patients [5] = settings: patients treated with tolvaptan; cited from earlier work
patients [6] = settings: human trials; cited from earlier work
conscious rats = settings: cited from earlier work
[7] = i.c.v. or i.v. infusion, conscious rats

In the case of `CC(C)C1CCC(N2CCC(N3C(=O)C(=O)c4ccccc43)CC2)CC1` (centres unmarked) [AT-090], the urine output (Sprague-Dawley rats) is given as “increase urine output” and the sedation and hyperphagia (Sprague-Dawley rats) is given as “sedation and hyperphagia”.

In the case of `CC(C)C1CCC(N2CCC(N3C(=O)/C(=N\O)c4ccccc43)CC2)CC1` (centres unmarked) [AT-127], the urine output (Sprague-Dawley rats) is given as “increase urine output” and the sedation and hyperphagia (Sprague-Dawley rats) is given as “sedation and hyperphagia”.

For `CC(C)C1CCC(N2CCC(n3c(CO)c(CO)c4ccccc43)CC2)CC1` (centres unmarked) [AT-390], the urine output (Sprague-Dawley rats) is listed as “increase urine output”.

For `CNC(=O)CC1C(=O)N(C2CCN(C3CCC(C(C)C)CC3)CC2)c2ccccc21` (centres unmarked) [AT-403], the urine output (Sprague-Dawley rats) is listed as “increase urine output” and the sedation and hyperphagia (Sprague-Dawley rats) is listed as “sedation and hyperphagia”.

For `CCCC[C@@H](NC(=O)[C@@H](Cc1ccccc1)NC(=O)[C@H](N)Cc1ccccc1)C(=O)N[C@H](CCCCN(C)C)C(=O)NCc1ccncc1` [JT09], the “fibrosis area in the kidney” value (Pkd1 RC/RC mice) was “reduce fibrosis area in the kidney”, the “serum creatinine and blood urea levels” value (Pkd1 RC/RC mice) was “decrease serum creatinine and blood urea levels” and the “cyst size and numbers” value (Pkd1 RC/RC mice) was “decrease cyst size and numbers”. The GFR (Pkd1 RC/RC mice) was “improve GFR”, the serum creatinine levels [1] was “reduces serum creatinine levels” and the urine output [1] was “increases urine output”.

In the case of `CN(C(=O)/C=C/c1ccoc1)[C@@H]1CC[C@@]2(O)[C@H]3Cc4ccc(O)c5c4[C@@]2(CCN3CC2CC2)[C@H]1O5` [nalfurafine], the “dose dependence of the increase in urine output” value (Pkd1^RC/RC mice; Pkd1^RC/RC mice, accumulative urine output of 5 hours after dosing) is reported as “dose dependent”, the “dose with the greatest increase in 5-hour urine output” value (Pkd1^RC/RC mice; Pkd1^RC/RC mice, doses of 100, 130, 180, 240 and 320 ug/kg) is reported as 0.24 mg/kg and the “highest effective dose in acute study” value (Pkd1^RC/RC mice; acute study) is reported as 0.24 mg/kg. The “urine output compared with vehicle treatment” value (Pkd1^RC/RC mice; oral administration, mice with PKD, within the 3 hours after dosing (FIG. 24a: 240 ug/kg)) was “significant increase in urine output”, the “behavioral or adverse effects” value (WT mice; mouse, in vivo) was “does not produce any apparent behavioral or adverse effects” and the urine output (WT mice; oral gavage, wild type mice) was “marked increase in urine output”. For the same molecule, the “diuresis after fresh drug dissolved in water” value (Sprague Dawley rats; rats, first day, 30 ug/kg single dose) was “produced diuresis”, the “magnitude of increase in urine output, day 4 versus day 1” value (Sprague Dawley rats; same rats, drug solution kept at room temperature for three days) was “the same on day 4 as it was on day 1” and the “stability when dissolved in water at room temperature” value (Sprague Dawley rats; water, room temperature) was 3 days. For the same molecule, the “fibrosis area in the kidney” value (Pkd1 RC/RC mice) was “reduce fibrosis area in the kidney”, the “serum creatinine and blood urea levels” value (Pkd1 RC/RC mice) was “decrease serum creatinine and blood urea levels” and the “cyst size and numbers” value (Pkd1 RC/RC mice) was “decrease cyst size and numbers”. The GFR (Pkd1 RC/RC mice) was “improve GFR”, the “infiltration of CD4+ and CD8+ T cells” value (affected skin) was “reduced infiltration of CD4+ T cells and CD8+ T cells in the affected skin” and the “selectivity for kappa receptors” value (kappa receptors) was “highly selective for kappa receptors”. For the same molecule, the half life ([2]; healthy volunteers) was 8 h, the half life ([2]; hemodialysis patients) was 10 to 15 h and the “polyuria as a side effect” value (patients [3]; clinical trials of nalfurafine) was “none of the clinical trials of nalfurafine have reported polyuria”. For the same molecule, the “CNS-mediated side effects of traditional opioids (nausea/vomiting, sedation, respiratory depression, abuse potential, addiction, euphoria)” value (patients [3]; human, in vivo) was “does not produce the CNS-mediated side effects”, the “extreme thirst and polyuria” value (patients [3]; one year post-marketing surveillance study) was “does not cause extreme thirst nor polyuria” and the “insomnia (worst side effect), share of patients” value (patients [3]; post marketing analysis of 3,762 patients) was “approximately 3%”.

For `Cc1ccccc1C(=O)Nc1ccc(C(=O)N2CCCC(O)c3cc(Cl)ccc32)c(C)c1` (centres unmarked) [tolvaptan], the water solubility [4] is listed as “poor water solubility” and the undesirable side effects (patients [5]) is listed as “severe thirst, polyuria and hepatic toxicity”.

In the case of “Ac—Arg—Tyr—Tyr—Arg—Trp—Lys—Lys—Lys—Lys—Lys—Lys—Lys—NH2 (Ac-RYYRWKKKKKKK-NH2) [ZP120, peptide NOP receptor partial agonist]”, the blood pressure (patients [6]) is listed as “efficacious in lowering blood pressure”.

For “nociceptin (FGGFTGARKSARKLANQ; Nociceptin; UniProt Q13519 130-146, looked up) [17 amino acid peptide, classical ligand of the nociceptin opioid peptide receptor]”, the “circulating levels of vasopressin” value (conscious rats; administered centrally) is listed as “reduces circulating levels of vasopressin”, the “blood pressure, heart rate and peripheral sympathetic nerve activity” value (conscious rats; centrally (i.c.v.) or at high doses peripherally (i.v. bolus or infusion)) is listed as “decreases blood pressure, heart rate and peripheral sympathetic nerve activity” and the urinary sodium excretion (conscious rats; [7]) is listed as “decrease in urinary sodium excretion”. The urine flow rate (conscious rats; [7]) was “marked increase in urine flow rate”.
